Reference: publication PMC6138693, “Structural determinants of Rab11 activation by the guanine nucleotide exchange factor SH3BP5” (Nature Communications, 2018)
Positions count from the first letter of the chain named.

B1: SH3BP5 (LNQ52AAA) (natural protein)
chain: MDAALKRSRSEEPAEILPPARDEEEEEEEGMEQGLEEEEEVDPRIQGELEKAAASTDDINRRETELEDARQKFRSVLVEATVKLDELVKKIGKAVEDSKPYWEARRVARQAQLEAQKATQDFQRATEVLRAAKETISLAEQRLLEDDKRQFDSAWQEMLNHATQRVMEAEQTKTRSELVHKETAARYNAAMGRMRQLEKKLKRAINKSKPYFELKAKYYVQLEQLKKTVDDLQAKLTLAKGEYKMALKNLEMISDEIHERRRSSAMGPRGCGVGAEGSSTSVEDLPGSKPEPDAISVASEAFEDDSCSNFVSEDDSETQSVSSFSSGPTSPSEMPDQFPAVVRPGSLDLPSPVSLSEFGMMFPVLGPRSECSGASSPECEVERGDRAEGAENKTSDKANNNRGLSSSSGSGGSSKSQSSTSPEGQALENRMKQLSLQCSKGRDGIIADIKMVQIG
B2: SH3BP5 (LE250AK) (natural protein)
chain: B1 chain with A52L, A53N, A54Q, L250A, E251K

Columns and labels:
[1] = target: T1, Rab11A (Homo sapiens, UniProt P62491, Q70L, form not given); test: Mant-GDP loading, then fluorescence release on GEF-driven exchange; assay type: binding; conditions: labelled compound; nucleotide site; Mg2+, 100 uM GTPgammaS, SH3BP5 as exchange factor
T1 construct: Rab11A with C-terminal His-tag kept, N-terminal GST cut by TEV; E. coli BL21 C41 (residues 1-211 given for the His-tagged HDX construct)

[2] = target: T2, Rab11A (Homo sapiens, UniProt P62491, K24R, form not given); test: as above; assay type: binding; conditions: labelled compound; nucleotide site; Mg2+, 100 uM GTPgammaS, with and without SH3BP5
T2 construct: Rab11A with C-terminal His-tag kept, N-terminal GST cut by TEV; E. coli BL21 C41 (residues 1-211 given for the His-tagged HDX construct)

[3] = target: T3, Rab11A (Homo sapiens, UniProt P62491); test: as above; assay type: binding; conditions: labelled compound; nucleotide site; Mg2+, 100 uM GTPgammaS, SH3BP5 as exchange factor
T3 construct: Rab11A with C-terminal His-tag kept, N-terminal GST cut by TEV; E. coli BL21 C41 (residues 1-211 given for the His-tagged HDX construct)

[4] = target: T4, Rab11A (Homo sapiens, UniProt P62491, L38P, form not given); test: as above; assay type: binding; conditions: labelled compound; nucleotide site; Mg2+, 100 uM GTPgammaS, with and without SH3BP5
T4 construct: Rab11A with C-terminal His-tag kept, N-terminal GST cut by TEV; E. coli BL21 C41 (residues 1-211 given for the His-tagged HDX construct)

[5] = target: T5, Rab8 (Homo sapiens, UniProt P61006); test: Mant-GDP loading, fluorescence release assay; assay type: binding; conditions: labelled compound; nucleotide site; Mg2+, 100 uM GTPgammaS, SH3BP5 as exchange factor
T5 construct: gene RAB8A; recombinant in E. coli, N-terminal GST cut by TEV

[6] = target: T6, Rab14 (Homo sapiens, UniProt P61106); test: Mant-GDP loading, fluorescence release assay; assay type: binding; conditions: labelled compound; nucleotide site; Mg2+, 100 uM GTPgammaS, SH3BP5 as exchange factor
T6 construct: recombinant in E. coli, N-terminal GST cut by TEV

[7] = target: T7, Rab11A (Homo sapiens, UniProt P62491, S40F, form not given); test: Mant-GDP loading, then fluorescence release on GEF-driven exchange; assay type: binding; conditions: labelled compound; nucleotide site; Mg2+, 100 uM GTPgammaS, with and without SH3BP5
T7 construct: Rab11A with C-terminal His-tag kept, N-terminal GST cut by TEV; E. coli BL21 C41 (residues 1-211 given for the His-tagged HDX construct)

[8] = target: T8, Rab25 (Homo sapiens, UniProt P57735); test: as above; assay type: binding; conditions: labelled compound; nucleotide site; Mg2+, 100 uM GTPgammaS, SH3BP5 as exchange factor
T8 construct: C-terminal His-tag, N-terminal GST cut by TEV; E. coli Rosetta

[9] = target: T9, Rab11A (Homo sapiens, UniProt P62491, R82C, form not given); test: as above; assay type: binding; conditions: labelled compound; nucleotide site; Mg2+, 100 uM GTPgammaS, with and without SH3BP5
T9 construct: Rab11A with C-terminal His-tag kept, N-terminal GST cut by TEV; E. coli BL21 C41 (residues 1-211 given for the His-tagged HDX construct)

[10] = target: T10, Rab11A (Homo sapiens, UniProt P62491, S25N, form not given); test: as above; assay type: binding; conditions: labelled compound; without SH3BP5
T10 construct: Rab11A with C-terminal His-tag kept, N-terminal GST cut by TEV; E. coli BL21 C41 (residues 1-211 given for the His-tagged HDX construct)

[11] = target: T11, Rab4B (Homo sapiens, UniProt P61018); test: Mant-GDP loading, fluorescence release assay; assay type: binding; conditions: labelled compound; nucleotide site; Mg2+, 100 uM GTPgammaS, SH3BP5 as exchange factor
T11 construct: recombinant in E. coli, N-terminal GST cut by TEV

[12] = target: T12, Rab2A (Homo sapiens, UniProt P61019); test: Mant-GDP loading, fluorescence release assay; assay type: binding; conditions: labelled compound; nucleotide site; Mg2+, 100 uM GTPgammaS, SH3BP5 as exchange factor
T12 construct: recombinant in E. coli, N-terminal GST cut by TEV

[13] = target: T13, Rab11A (Homo sapiens, UniProt P62491, I44A, form not given); test: Mant-GDP loading, then fluorescence release on GEF-driven exchange; assay type: binding; conditions: labelled compound; nucleotide site; Mg2+, 100 uM GTPgammaS, with and without SH3BP5
T13 construct: Rab11A with C-terminal His-tag kept, N-terminal GST cut by TEV; E. coli BL21 C41 (residues 1-211 given for the His-tagged HDX construct)

[14] = target: T14, Rab12 (Homo sapiens, UniProt Q6IQ22); test: Mant-GDP loading, fluorescence release assay; assay type: binding; conditions: labelled compound; nucleotide site; Mg2+, 100 uM GTPgammaS, SH3BP5 as exchange factor
T14 construct: recombinant in E. coli, N-terminal GST cut by TEV

[15] = target: T15, Rab11A (Homo sapiens, UniProt P62491, F36A, form not given); test: Mant-GDP loading, then fluorescence release on GEF-driven exchange; assay type: binding; conditions: labelled compound; nucleotide site; Mg2+, 100 uM GTPgammaS, with and without SH3BP5
T15 construct: Rab11A with C-terminal His-tag kept, N-terminal GST cut by TEV; E. coli BL21 C41 (residues 1-211 given for the His-tagged HDX construct)

[16] = target: WT Rab11A (1–211, C-term his) (human) (UniProt P62491)
Sequence of WT Rab11A (1–211, C-term his) (human) (P62491 1-211): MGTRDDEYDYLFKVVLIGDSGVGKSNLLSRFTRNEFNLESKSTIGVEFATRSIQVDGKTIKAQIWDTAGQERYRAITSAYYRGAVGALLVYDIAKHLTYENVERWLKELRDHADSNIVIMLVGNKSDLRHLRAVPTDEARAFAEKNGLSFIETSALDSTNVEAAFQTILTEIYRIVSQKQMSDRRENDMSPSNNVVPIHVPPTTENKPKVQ

T10 sequence (P62491 1-211 S25N, form open): as the sequence (P62491 1-211) above, with S25N counted along it
T6 sequence (P61106 whole entry): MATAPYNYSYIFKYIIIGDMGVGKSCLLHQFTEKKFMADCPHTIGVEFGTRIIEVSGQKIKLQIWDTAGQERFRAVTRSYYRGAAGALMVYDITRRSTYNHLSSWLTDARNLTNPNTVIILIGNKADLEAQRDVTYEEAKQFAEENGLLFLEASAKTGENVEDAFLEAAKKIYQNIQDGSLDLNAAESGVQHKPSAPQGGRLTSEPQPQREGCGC
T14 sequence (Q6IQ22 whole entry): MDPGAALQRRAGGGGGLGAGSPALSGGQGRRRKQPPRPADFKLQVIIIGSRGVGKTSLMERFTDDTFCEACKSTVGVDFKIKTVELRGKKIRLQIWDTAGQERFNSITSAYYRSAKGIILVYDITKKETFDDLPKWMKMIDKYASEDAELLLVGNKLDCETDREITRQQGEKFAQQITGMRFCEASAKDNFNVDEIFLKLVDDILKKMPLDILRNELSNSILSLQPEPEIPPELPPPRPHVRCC
T15 sequence (P62491 1-211 F36A, form open): as the sequence (P62491 1-211) above, with F36A counted along it
T11 sequence (P61018 whole entry): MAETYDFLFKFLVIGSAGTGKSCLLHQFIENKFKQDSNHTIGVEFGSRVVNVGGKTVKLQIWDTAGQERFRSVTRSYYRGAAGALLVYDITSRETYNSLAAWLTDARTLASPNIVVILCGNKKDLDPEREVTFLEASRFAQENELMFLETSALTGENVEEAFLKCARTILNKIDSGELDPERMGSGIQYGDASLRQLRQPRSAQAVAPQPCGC
T3 sequence (P62491 1-211): as the sequence (P62491 1-211) above
T4 sequence (P62491 1-211 L38P, form open): as the sequence (P62491 1-211) above, with L38P counted along it
T2 sequence (P62491 1-211 K24R, form open): as the sequence (P62491 1-211) above, with K24R counted along it
T7 sequence (P62491 1-211 S40F, form open): as the sequence (P62491 1-211) above, with S40F counted along it
T1 sequence (P62491 1-211 Q70L, form open): as the sequence (P62491 1-211) above, with Q70L counted along it
T12 sequence (P61019 whole entry): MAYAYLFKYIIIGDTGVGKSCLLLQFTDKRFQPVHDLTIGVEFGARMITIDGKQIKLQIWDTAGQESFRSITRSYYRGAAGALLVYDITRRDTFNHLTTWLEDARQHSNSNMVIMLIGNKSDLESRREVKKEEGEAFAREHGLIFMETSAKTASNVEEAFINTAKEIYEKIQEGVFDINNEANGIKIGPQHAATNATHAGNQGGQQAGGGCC
T9 sequence (P62491 1-211 R82C, form open): as the sequence (P62491 1-211) above, with R82C counted along it
T5 sequence (P61006 whole entry): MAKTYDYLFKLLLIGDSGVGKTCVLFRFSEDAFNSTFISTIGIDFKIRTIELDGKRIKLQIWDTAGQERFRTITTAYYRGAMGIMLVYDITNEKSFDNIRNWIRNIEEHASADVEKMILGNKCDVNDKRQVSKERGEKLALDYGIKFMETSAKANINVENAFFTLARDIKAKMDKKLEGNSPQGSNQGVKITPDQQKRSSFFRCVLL
T13 sequence (P62491 1-211 I44A, form open): as the sequence (P62491 1-211) above, with I44A counted along it
T8 sequence (P57735 whole entry): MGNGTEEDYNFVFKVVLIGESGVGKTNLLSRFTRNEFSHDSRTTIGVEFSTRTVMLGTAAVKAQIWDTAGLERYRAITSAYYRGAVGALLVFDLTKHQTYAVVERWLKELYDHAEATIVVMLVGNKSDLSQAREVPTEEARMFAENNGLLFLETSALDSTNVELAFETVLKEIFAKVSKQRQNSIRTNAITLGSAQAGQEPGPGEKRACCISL

| GEF activity on Rab11A (Mant-GDP release), mutant (1000 nM) compared with WT SH3BP5 (52 nM) (fold decrease) [16] | Molecule | Mant-GDP loading, then fluorescence release on GEF-driven exchange [1] | Mant-GDP loading, then fluorescence release on GEF-driven exchange [2] | Mant-GDP loading, then fluorescence release on GEF-driven exchange [3] | Mant-GDP loading, then fluorescence release on GEF-driven exchange [4] | Mant-GDP loading, fluorescence release assay [5] | Mant-GDP loading, fluorescence release assay [6] | Mant-GDP loading, then fluorescence release on GEF-driven exchange [7] | Mant-GDP loading, then fluorescence release on GEF-driven exchange [8] | Mant-GDP loading, then fluorescence release on GEF-driven exchange [9] | Mant-GDP loading, then fluorescence release on GEF-driven exchange [10] | Mant-GDP loading, fluorescence release assay [11] | Mant-GDP loading, fluorescence release assay [12] | Mant-GDP loading, then fluorescence release on GEF-driven exchange [13] | Mant-GDP loading, fluorescence release assay [14] | Mant-GDP loading, then fluorescence release on GEF-driven exchange [15] |
| --- | --- | --- | --- | --- | --- | --- | --- | --- | --- | --- | --- | --- | --- | --- | --- | --- |
| – | CNc1ccccc1C(=O)O[C@H]1C[C@H](n2cnc3c(=O)[nH]c(N)nc32)O[C@@H]1COP(=O)(O)OP(=O)(O)O [Mant-GDP, 3-(N-methyl-anthraniloyl)-2-deoxy-GDP] | GEF assays on Q70L Rab11A showed a slightly elevated GEF-mediated nucleotide exchange rate | this mutant had rapid nucleotide exchange even in the absence of SH3BP5 | Rab11 isoforms Rab11A and Rab25 loaded with the fluorescent GDP analog | Rab2A (L38P), Rab8 (S40F), and Rab14 (K41P) were also found to decrease GEF activity | panel of evolutionarily related Rab GTPases loaded with Mant-GDP | panel of evolutionarily related Rab GTPases loaded with Mant-GDP | Rab2A (L38P), Rab8 (S40F), and Rab14 (K41P) were also found to decrease GEF activity | Rab11 isoforms Rab11A and Rab25 loaded with the fluorescent GDP analog | with R82 only partially decreasing SH3BP5 GEF activity | Rab11A (S25N) caused rapid release of Mant-GDP even in the absence of SH3BP5 | panel of evolutionarily related Rab GTPases loaded with Mant-GDP | panel of evolutionarily related Rab GTPases loaded with Mant-GDP | F36 and I44 residues, with mutation of these residues to Alanine | panel of evolutionarily related Rab GTPases loaded with Mant-GDP | F36 and I44 residues, with mutation of these residues to Alanine |
| > 100 | B1 | – | – | – | – | – | – | – | – | – | – | – | – | – | – | – |
| > 100 | B2 | – | – | – | – | – | – | – | – | – | – | – | – | – | – | – |
